The structures appear in SMILES notation.

In the METLIN SMRT retention time set (Domingo-Almenara et al. 2019) one finds RP-LC retention time data, which are given here for 80 compounds.

The nature of the series: gradient 5% acetonitrile 3 min, to 50% in 2 min, to 85% in 15 min, held 3 min, 100 µL/min. As to conditions: column: Zorbax Extend-C18 2.1 x 50 mm; eluents: water / acetonitrile, 0.1% formic acid. In short, it runs like this: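 Retention times of pure standards were taken from adduct peaks that were selected by computer and manually inspected. Over 3 months, mixtures of ~100 molecules were run by HPLC–quadrupole time-of-flight mass spectrometry in positive and negative ionization mode. The Zorbax Extend-C18 column (2.1 × 50 mm, 1.8 μm) ran at 100 μL/min in water and acetonitrile, each containing 0.1% formic acid, with 40 μL dead volume and 900 μL dwell volume.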
`CS(=O)(=O)N1CCCc2cc(C(=O)NCCN3CCOCC3)ccc21` registered an RP-LC retention time of 573 s.

Regarding `O=C(NCc1ccc(F)cc1)Nc1cccc(-c2ccc(N3CCOCC3)nn2)c1`, the RP-LC retention time was found to be 674 s.

The compound `O=C(NCCCn1cccc1)c1ccno1` came in with an RP-LC retention time of 644 s.

As for `O=C(Nc1cc(F)ccc1F)N1CCCC(Cn2c(C3CC3)nc3cccnc32)C1` (stereo not given), the RP-LC retention time amounted to 689 s.

For the compound `CCN1C(=O)COc2ccc(-c3nc(NC(=O)c4cc(OC)c(OC)c(OC)c4)sc3C)cc21`, the RP-LC retention time amounted to 1020 s.

Take `CS(=O)(=O)N1CCC(OC2CCN(C(=O)Nc3c(F)cccc3F)CC2)CC1`: the RP-LC retention time came to 688 s.

Regarding `CCOc1ccc(C(=O)N2CCc3cc(-c4csc(C)n4)ccc32)cc1`, the RP-LC retention time worked out at 1060 s.

In turn, `O=C(Nc1ccc(Br)cc1F)c1cc(-c2cccnc2)n[nH]1` displayed an RP-LC retention time of 733 s.

For `Cc1nc(-c2cc(S(=O)(=O)N3CCCCC3)c(C)n2C)sc1C`, the RP-LC retention time amounted to 1140 s.

`Cc1ccc(C2CC(=O)N(c3ccc(C(C)C)cc3)C(=O)C2)cc1` returned an RP-LC retention time of 1120 s.

In turn, `CCN1CCCC1CNC(=O)CC1CCN(S(=O)(=O)c2ccc3c(c2)CCN3C(C)=O)CC1` (stereo not given) came in with an RP-LC retention time of 597 s.

Take `CC1CCN(S(=O)(=O)c2ccc(-c3nnc(C(=O)NCc4ccccc4Cl)o3)cc2)CC1`: the RP-LC retention time was 1110 s.

For `C#CCNc1ccc(C(=O)OCC)cc1`, the RP-LC retention time is 879 s.

Compound `Cc1nc(-c2noc(-c3ccccc3)n2)cn1CC(=O)Nc1ccc(Cl)cc1` showed an RP-LC retention time of 885 s.

`Cc1csc(-c2cc(S(=O)(=O)N3CCN(Cc4ccc5c(c4)OCO5)CC3)c(C)s2)n1` had an RP-LC retention time of 740 s.

With `COc1ccccc1-c1nc(C2CCN(C(=O)C3COc4ccccc4O3)CC2)no1` (stereo not given), the RP-LC retention time stood at 962 s.

`O=c1c2cc(-c3ccccc3)nn2ccn1Cc1noc(CN2CCc3ccccc3C2)n1` yielded an RP-LC retention time of 818 s.

The compound `COc1ccc(-c2noc(Cc3nnc(-c4cccc(C)c4)o3)n2)cc1F` registered an RP-LC retention time of 1040 s.

For `O=C(c1ccsc1)N1CC(n2cc(C(=O)N3CCOCC3)nn2)C1`, the RP-LC retention time worked out at 609 s.

`Cc1ccc(NC(=O)NCCCn2c(C(F)(F)F)nc3cccnc32)cc1F` displayed an RP-LC retention time of 866 s.

Compound `COCCN1C(=O)CCc2cc(NC(=O)COc3cccc(C)c3)ccc21` had an RP-LC retention time of 799 s.

In turn, `Cc1cc(F)ccc1NC(=O)Cn1nc2cc(-c3ccccn3)nc(C)n2c1=O` returned an RP-LC retention time of 746 s.

Compound `CCn1nccc1C(=O)Nc1nnc(-c2ccsc2)o1` displayed an RP-LC retention time of 641 s.

Compound `Cc1ccc(C)c(NC(=O)c2cn3c(n2)CCCC3)c1` returned an RP-LC retention time of 603 s.

`CN1CCN(c2cc(C(=O)O)c3cc(NS(=O)(=O)c4ccc(Cl)c(Cl)c4)ccc3n2)CC1` gave an RP-LC retention time of 644 s.

On to `CCn1ccc2sc(C)c(C(=O)NCc3cccc(OC)c3)c2c1=O`, for which the RP-LC retention time was determined as 785 s.

Turning to `O=C(C1=CN(c2ccccc2)c2cc(Cl)ccc2S1(=O)=O)N1CCCC1`, the RP-LC retention time stood at 827 s.

For the compound `COc1ccc(-c2nccn3cc(C(=O)O)nc23)cc1`, the RP-LC retention time came out at 672 s.

In the case of `C=C1C(=O)[C@]23[C@H](O)[C@H]1CC[C@H]2[C@@]12CO[C@]3(O)[C@@H](O)[C@@H]1C(C)(C)CC[C@@H]2O`, the RP-LC retention time was determined as 794 s.

On to `COC(=O)c1ccc2c(=O)n(Cc3ccc(OC)cc3)c(N3CCC(C)CC3)nc2c1`, for which the RP-LC retention time is 1330 s.

For the compound `Fc1cccc(F)c1-c1nc(-c2ccc3nncn3c2)no1`, the RP-LC retention time is 765 s.

The compound `O=c1c2ccccc2ncn1Cc1noc(Cc2ccc(Br)cc2)n1` came in with an RP-LC retention time of 871 s.

For the compound `CC1CCN(C(=O)c2cc(S(=O)(=O)N3CCCC(C(=O)Nc4nccs4)C3)c[nH]2)CC1` (stereo not given), the RP-LC retention time came out at 756 s.

In the case of `CSc1ccc(CNC(=O)CCc2c(-c3ccc(F)cc3)nc3ccccn23)cc1`, the RP-LC retention time is 692 s.

The compound `COc1ccc(CC(=O)N2CCC(Nc3ncnc4c3CCC4)C2)cc1` (stereo not given) registered an RP-LC retention time of 595 s.

On to `COc1ccc(NC(=O)c2noc3c2CC(C)CC3)cc1OC` (stereo not given), for which the RP-LC retention time was 895 s.

With `CC(C)Cc1ccc(S(=O)(=O)N2C[C@@H](F)C[C@H]2C(=O)N2CCc3ccccc3C2)cc1`, the RP-LC retention time came to 1120 s.

In the case of `CC(C)CCNS(=O)(=O)c1ccc(-c2nc(C(C)C)cs2)s1`, the RP-LC retention time stood at 1260 s.

In turn, `C=CCNC(=O)c1cnn(-c2ccc(-c3nc(C)no3)cn2)c1C` came in with an RP-LC retention time of 750 s.

For `COc1ccc(C(=O)Nc2nc(-c3ccc4c(c3)NC(=O)C(C)O4)cs2)cc1OC` (stereo not given), the RP-LC retention time is 864 s.

The compound `COc1ccccc1-c1ccc(N2CCN(C(=O)NC3CCCCC3)CC2)nn1` came in with an RP-LC retention time of 601 s.

Take `CC(C)CNC(=O)NC(c1ccccc1)c1nnc(-c2ccccc2Cl)o1` (stereo not given): the RP-LC retention time was determined as 898 s.

As for `COC(=O)c1ccc2c(=O)n(-c3ccc4c(c3)OCO4)c(N3CCCC3)nc2c1`, the RP-LC retention time turned out to be 885 s.

`Cc1cc(NC(=O)Cc2csc(NC(=O)c3ncccn3)n2)no1` showed an RP-LC retention time of 591 s.

`CCn1c(SC)nnc1-c1nn(C)c2c1CN(C(=O)CCc1ccccc1)CC2`: the RP-LC retention time turned out to be 798 s.

As for `CC1CCN(C2=NCCN2C(=O)c2ccc(F)cc2)CC1`, the RP-LC retention time was determined as 661 s.

Turning to `COC(=O)c1cc(C)nc2c1c(=O)n(Cc1ccc(C)cc1)c(=O)n2Cc1ccco1`, the RP-LC retention time is 1160 s.

`COc1cc(OC)cc(-c2nc(C3CC(=O)N(c4ccc(C)cc4)C3)no2)c1` (stereo not given) registered an RP-LC retention time of 1010 s.

The compound `NS(=O)(=O)OC[C@@H]1C[C@@H](n2ccc3c(N[C@H]4CCc5ccccc54)ncnc32)C[C@H]1O` came in with an RP-LC retention time of 724 s.

On to `Cc1cc(C)nc(NC(=O)NCCCSc2ccccn2)n1`, for which the RP-LC retention time turned out to be 671 s.

`Cc1nc(C)c(C(=O)N2CCC(c3noc(-c4ccccn4)n3)C2)s1` (stereo not given) displayed an RP-LC retention time of 648 s.

`COC(=O)c1ccsc1NC(=O)c1cc(-c2ccccc2)on1`: the RP-LC retention time amounted to 1170 s.

Take `Cc1ccc(Cn2c(CCCC(=O)N3CCN(c4ncccn4)CC3)nc3cccnc32)cc1`: the RP-LC retention time turned out to be 744 s.

Consider `COc1ccc(NC(=O)C2CC(=O)N(CCc3c[nH]c4ccc(F)cc34)C2)cc1` (stereo not given), for which the RP-LC retention time was 758 s.

In turn, `Cc1cn2c(S(=O)(=O)NC3CCCCCC3)c(C(C)C)nc2s1` displayed an RP-LC retention time of 1050 s.

`COC(=O)CNC(=O)NCCn1c(-c2ccccc2)nc2cccnc21` gave an RP-LC retention time of 591 s.

In the case of `COc1ccccc1NC(=O)Cn1cc(C(=O)N2CCCC2)c(=O)c2ccc(C)nc21`, the RP-LC retention time was 705 s.

With `Clc1ccccc1-c1nc(-c2ccnc(N3CCOCC3)c2)no1`, the RP-LC retention time was 994 s.

Consider `COc1cc(OC)c(NC(=O)NC2CCN(c3ccc(C)cc3)C2=O)cc1Cl` (stereo not given), for which the RP-LC retention time was determined as 873 s.

In turn, `Cc1cc(F)ccc1NC(=O)CN1C(=O)NC2(CCCCC2)C1=O` yielded an RP-LC retention time of 764 s.

The compound `CC(C)NC(=O)C1CCCN(C(=O)Nc2ccc(NC(=O)Nc3ccccc3)cc2)C1` (stereo not given) yielded an RP-LC retention time of 720 s.

Turning to `COc1ccc(/C=C/c2nc(C#N)c(NCCCN(C)C)o2)cc1OC`, the RP-LC retention time is 629 s.

On to `COCCCNC(=O)N1CCCN(c2nc3cc(F)ccc3n3cccc23)CC1`, for which the RP-LC retention time is 613 s.

`Cc1cc(C)cc(C(=O)Nc2ccc3c(c2)Sc2ncccc2C(=O)N3C)c1` gave an RP-LC retention time of 888 s.

`O=C(Cc1ccc(NC(=O)c2ccc(F)cc2Cl)cc1)NC1CC1` registered an RP-LC retention time of 681 s.

For `CCCc1nnsc1C(=O)N1CC(c2nc(Cc3ccccc3OC)no2)C1`, the RP-LC retention time was 898 s.

In turn, `CCOc1ccccc1CNC(=O)C1CCN(c2nccnc2Sc2cccc(C)c2)CC1` returned an RP-LC retention time of 1170 s.

For the compound `COc1ccc(CNC(=O)C2(C)CCN(C(=O)Nc3ccc(F)cc3)CC2)cc1`, the RP-LC retention time came to 761 s.

For the compound `COc1ccc(-c2csc(NC(=O)Cc3csc(C)n3)n2)cc1`, the RP-LC retention time is 828 s.

Compound `O=C(c1csc(-c2ccc(N3CCSCC3)nc2)n1)N1CCC2(CC1)OCCO2` gave an RP-LC retention time of 822 s.

`CCOc1cc2c(cc1OCC)C1C(C(=O)NCCCOC)c3ccccc3C(=O)N1CC2` (stereo not given) gave an RP-LC retention time of 744 s.

As for `CS(=O)(=O)N(Cc1ccncc1)C1CN(C(=O)C2(c3ccccc3)CC2)C1`, the RP-LC retention time was found to be 610 s.

In the case of `Cc1cn(C)c(CC(=O)NCCN2CCCc3ccccc32)c1C(=O)O`, the RP-LC retention time turned out to be 792 s.

In turn, `CCOC(=O)N1CCN(C(=O)CCc2cc3cc(OC)ccc3[nH]c2=O)CC1` returned an RP-LC retention time of 662 s.

As to `COc1ccc(CNC(=O)c2cc(-c3ccncc3)cn2C)cc1OC`, the RP-LC retention time is 605 s.

The compound `CCN(CCN(C)C)c1ccc(C(=O)O)cc1NS(=O)(=O)c1ccccc1Cl` returned an RP-LC retention time of 582 s.

Compound `CCOC(=O)c1c(C)[nH]c(C(=O)N2CCC(CC(=O)NCCN(C)C)CC2)c1C` yielded an RP-LC retention time of 569 s.

Consider `CCOC(=O)CSc1nnc(-c2nnc(SCC(=O)OCC)n2CC)n1CC`, for which the RP-LC retention time is 758 s.

In turn, `CCSc1ccccc1C(=O)NCc1nc(COc2ccc(OC)cc2)no1` gave an RP-LC retention time of 848 s.

`COc1cccc(-c2nc(C3CCN(C(=O)C4COc5ccccc5O4)CC3)no2)c1` (stereo not given) returned an RP-LC retention time of 1060 s.
